Experimental data from patent US20260027094A1, “USE OF PYRIDONE DERIVATIVE” (GUANGZHOU JOYO PHARMATECH CO., LTD, priority 2022, published 2026).

Tested on: carbon tetrachloride-induced SD rat models of liver fibrosis
Assay: In vivo pharmacodynamic study on carbon tetrachloride-induced rat models of liver fibrosis
Design: species or system SD rats
Conditions: for Liver fibrosis score (points): Sirius Red staining, model control 4.90 ± 0.88; for Liver CVF (%): model control 8.75 ± 2.39, normal 1.24 ± 0.23; for Liver HYP content: model control 702.84 ± 173.44, normal 307.30 ± 78.13
Source text: • 1) Animals: SD rats, specific pathogen-free (SPF) grade, male, aged 7 to 8 weeks at the time of grouping, with 10 mice per group. The animals were supplied by Beijing HFK Bioscience Co., Ltd. • 2) Reagents, positive drugs, and test drugs • A. Reagents
• B. Positive Drug: Pirfenidone, Supplied by Biochempartner. • C. Test Drug: compound I, supplied by Guangzhou JOYO Pharmatech Co., Ltd. • 3) Modeling method
Intraperitoneal injection method of carbon tetrachloride: After the adaptation period inspection and observation were qualified, experimental animals were screened by body weight and randomly divided into a normal control group and a model induction group. Starting on the first day of grouping, animals in the model induction group were intraperitoneally injected with a 20% carbon tetrachloride solution dissolved in corn oil, at a modeling frequency of twice a week for six consecutive weeks. After two weeks of carbon tetrachloride induction, animals in the model induction group were randomly subdivided a second time into 5 experimental groups based on their alanine transaminase (ALT) levels (with body weight used as a calibration factor), including the model control group, positive drug treatment group, test compound low dose treatment group, test compound medium dose treatment group, and test compound high dose treatment group. Animals in the normal control group were administered the corresponding vehicle. The experimental period lasted for 6 weeks, during which all animals were given normal access to water and food. • 4) Grouping and administration info
• a: The test compound vehicle was an aqueous solution of 0.5% (w/v) methylcellulose and 0.2% (v/v) Tween 80. • b: An aqueous solution of 0.5% (w/v) methylcellulose and 0.2% (v/v) Tween 80 was used as the vehicle and prepared to the required concentration. • 5) Endpoint sample collection, histopathological analysis, and hydroxyproline content analysis. • A. After euthanizing the animals with pentobarbital sodium anesthesia, the liver was excised and rinsed with normal saline. The liver was divided into three segments: the large lobe, the left lobe, and the right-middle lobe. The large lobe tissue was quickly frozen in liquid nitrogen and stored in a −80° C. refrigerator for measuring the total hydroxyproline levels of animal liver samples in each group. The tissues of left lobe and right-middle lobe of liver were fixed in 10% formaldehyde, embedded in paraffin, and sectioned into 3 μm-thick slices. These slices were then deparaffinized in xylene, rehydrated through a graded ethanol series, subjected to Sirius Red staining, dehydrated, cleared, sealed, and observed under a microscope to capture histopathological changes. Routine tissue freezing was performed. • B. Analysis of fibrosis levels in liver tissue sections;
Based on Sirius Red staining results of liver sections, 1) fibrosis staging was scored according to the scoring criteria listed in Table 3; 2) using Image J, the liver fibrotic area and the total sample area of animals in each experimental group were counted to calculate the collagen volume fraction (CVF %) for each sample. • C. Detection of hydroxyproline levels in liver
The liver large lobe samples were processed according to the instructions using the hydroxyproline detection kit. The total hydroxyproline levels in the liver samples of animals in each group were detected.

[1] = Compound I high dose 30 mg/kg twice a day for 4 weeks
[2] = Compound I low dose 3 mg/kg twice a day for 4 weeks
[3] = Compound I medium dose 10 mg/kg twice a day for 4 weeks

CC1(c2ccc(=O)n(-c3ccsc3)c2)COC1 [Compound I]
Efficacy evaluation result (conclusion) (Compound I 3.0, 10.0 and 30.0 mg/kg twice a day, 4 weeks): significant therapeutic effect | Liver fibrosis score (points) (Compound I high dose 30 mg/kg oral gavage twice a day for 4 weeks): 4.20 ± 0.92 points | Liver CVF (%) [1]: 5.60 ± 1.92 % | Liver HYP content [1]: 607.79 ± 112.74 µg/g | Liver fibrosis score (points) (Compound I low dose 3 mg/kg oral gavage twice a day for 4 weeks): 4.40 ± 0.70 points | Liver CVF (%) [2]: 5.02 ± 1.42 % | Liver HYP content [2]: 716.17 ± 105.01 µg/g | Pseudolobular structure of the liver under light microscope (Compound I medium and high dose treatment groups (10, 30 mg/kg twice a day), some animals, Sirius Red): tended to disintegrate | Liver fibrosis score (points) (Compound I medium dose 10 mg/kg oral gavage twice a day for 4 weeks): 4.00 ± 0.94 points | Liver CVF (%) [3]: 4.87 ± 1.68 % | Liver HYP content [3]: 560.60 ± 114.04 µg/g | Hepatocyte fat degeneration and swelling degeneration in the central vein area of the liver (each Compound I treatment group vs model control, medium and high dose most obvious): reduced to some extent
